Results: patent EP3502234B1, “ANAEROBIC AMMONIUM OXIDATION WITH PLANKTONIC CELLS IN A CONTINUOUS OR SEMI-CONTINUOUS STIRRED-TANK REACTOR” (priority 2017, dated 2019)

What was measured:
[1] = tested on: anammox activity of reactor effluent; experiment: Incubations of reactor effluent with effectors; anammox activity from headspace gas production rate; type: cell-based, "Ca. Kuenenia stuttgartiensis"; details: for IC50: 30°C
Description: 60 mL nitrogen-flushed glass bottles were anoxically filled with 50 mL reactor effluent and closed with butyl rubber septa and aluminum crimp caps. Effectors were anoxically added with sterile syringes through the septa or directly added to the bottles as powder. Except for the experiment in which nitrite was varied, 3 mM nitrite was added at time 0. Each bottle was directly connected to a MPX5100DP pressure sensor via a 0.41 mm Luer Lock needle. All sensors were electrically connected to a LabJack converter for data reading and storage. Pressure sensors were read every 3 seconds. In total, twelve such bottles were set up for each experiment, allowing the simultaneous testing of five different effector concentrations in duplicate plus two bottles as negative controls without effector.
Experiments were incubated for 24 hours after which 3 mL air was injected into each bottle for calibration of the pressure sensor readings. Gas production rates were calculated as mL per day across 1,000 consecutive data points (3,000 seconds). […] The same time frame was chosen for all twelve bottles in one experiment to calculate anammox activities from the slopes.
For that the reactor effluent was incubated in closed bottles and monitored the pressure build-up in the headspace over time. […] Legend: the number before the dash indicates the chloramphenicol concentration in mg L^-1, the number behind the dash indicates the number of the replicate. (A) Gas production; (B) Gas production rate calculated in a window of 1,000 consecutive data points (equivalent to 3,000 seconds).

[2] = tested on: anammox activity of "Ca. Kuenenia stuttgartiensis "; details: 20 mg L^-1 chloramphenicol, sequencing batch reactor, after 4 days; cited from earlier work
[3] = tested on: anammox activity of "Ca. Kuenenia stuttgartiensis "; details: 1 g L^-1 chloramphenicol; cited from earlier work
[4] = tested on: "Ca. Kuenenia stuttgartiensis"; details: previous reports; cited from earlier work
anammox activity = experiment: Semi-CSTR reactor operation under critical conditions (pulse addition, reactor collapse); type: cell-based, "Ca. Kuenenia stuttgartiensis"; details: pulse of 0.2 mM Na2S added to the reactor
Description: The reactor effluent was collected in anoxic 2-liter bottles and stored in the dark at 4°C to be used later for inhibitor tests (see below) or as inoculum when the reactor collapsed. During one-year operation under experimental conditions, the reactor intentionally collapsed three times under three different critical conditions: 1) after the reactor was incubated for 24 h at 38.6°C without feeding nitrite, 2) after a pulse of 0.2 mM Na2S was added, and 3) after a pulse of 65 µM FeCl2 was added. […] After such reactor collapses, the reactor could be reproducibly regenerated with the stored eluent bottles. The activity in the effluent bottles was recovered, as judged from pressure production rates, within only 2 days when a bottle was warmed up to room temperature, spiked with 3 mM nitrite and incubated at 30°C. Effluent could be stored at 4°C for at least three months without startup delay.

[5] = reactor effluent, gas production rate normalized to controls without effector

For [Cl-].[Na+] [NaCl], the inhibition ([1]; 270 mM salt) was 75%, the “salt concentrations that start to inhibit anammox activity” value ([1]; reactor effluent) was 120 to 270 mM and the inhibition ([1]; salt concentrations up to 120 mM) was “No apparent inhibition”.

In the case of O=C(N[C@H](CO)[C@H](O)c1ccc([N+](=O)[O-])cc1)C(Cl)Cl [chloramphenicol], the “drop in reactor efficiency” value [2] is listed as 25%, the “drop in specific anammox activity” value [2] is listed as 75% and the inhibition at 30 µg/mL ([1]; chloramphenicol 30 mg L^-1) is listed as 57%. For the same compound, the IC50 ([1]; reactor effluent, 3 mM nitrite) was 19 µg/mL and the inhibition [3] was “no apparent inhibition”.

With CN(C)c1ccc2nc3ccc(=[N+](C)C)cc-3sc2c1 [methylene blue] the inhibition ([1]; 100 µg L^-1 methylene blue) was 86%, the “inhibition of anammox activity” value ([1]; methylene blue 10 µg L^-1) was “no apparent inhibition” and the IC50 ([1]; reactor effluent, 3 mM nitrite) was 0.053 µg/mL.

In the case of O=N[O-].[Na+] [nitrite, NaNO2], the inhibition ([1]; nitrite at 6 mM) is reported as 24%, the inhibition ([1]; nitrite at 6 mM, as worded in the discussion) is reported as “severe inhibition” and the IC50 [1, 5] is reported as 9.6 mM. The tolerant to nitrite [4] was 13 to 25 mM.

In the case of [Na+].[Na+].[S-2] [sulfide, Na2S], the “effect on the reactor” value (anammox activity) is reported as “complete loss of the anammox activity”, the IC50 ([1]; reactor effluent, 3 mM nitrite) is reported as 0.005 mM and the “inhibition of anammox activity” value ([1]; sulfide at 5 µM) is reported as “severely inhibited”.

In the case of phosphate, the “anammox activity higher than in the controls at 1.5 mM” value ([1]; 6.5 mM phosphate) is reported as 11%, the anammox activity preserved ([1]; highest tested concentration of 51.5 mM phosphate) is reported as 65% and the “increase of anammox activity” value ([1]; phosphate concentration increased from 1.5 mM to 3.5 mM) is reported as 16%. The IC50 [1, 5] was over 51.5 mM.
